Experimental data reported in patent US12180249B1, “Compositions and methods for selective labeling of secondary amines” (Emory University, priority 2021, dated 2024).

Test: chemical stability of the triazene-coupling product under different conditions
Type: physicochemical
Conditions: incubated in water:ACN mixture for 24 h
Procedure: The chemical stability of the triazene-coupling product was tested under different conditions. The triazene-coupling product acts as a protecting group for secondary amines and tolerates various coupling reagents, such as N,N′-diisopropylcarbodiimide (DIC), and bases, such as N,N-diisopropylethylamine (DIEA) and pyridine (PPR), which is required for Fmoc peptide synthesis. It is also stable to a strong protein disulfide reducing agent tris(2-carboxyethyl) phosphine (TCEP) and click chemistry (CuAAC) conditions. […] This is in contrast to the stability of the azo coupling product with Tyr, which degrades quickly in the presence of sodium dithionate to generate modified tyrosine
Even though the triazene-secondary amine linkage is stable under physiologically relevant conditions, experiments were performed to determine whether the conjugate can be decoupled in a traceless manner. Indeed, exposure of the triazene modified peptide 4 MDz-AKmeF to acidic conditions (10% TFA in H2O) led to its rapid cleavage in 5 min to unchanged peptide AKmeF, as observed by HPLC and MS analysis. It is noteworthy that the acidic cleavage generated original coupling partners in an unperturbed manner. In contrast, a handful of the coupling reactions are reversible, but the products derived from decoupling are modified versions of the original reactants. […]

For COC(=O)C1CCCN1N=Nc1ccc(OC)cc1 (stereo not shown) [4 MDz-Pro-OMe], the “decomposition of the triazene-coupling product” value was “no decomposition”.
